Reference: patent publication US20250043299A1, “POINT MUTATIONS THAT BOOST AROMATIC AMINO ACID PRODUCTION AND CO2 ASSIMILATION IN PLANTS” (Wisconsin Alumni Research Foundation, priority 2021, published 2025)

Experiments:
DHS2^WT = molecular target: T1, DHS2^WT (Arabidopsis thaliana, UniProt Q00218); assay: DHS enzyme assay, recombinant DHS2^WT; type: biochemical; conditions: for inhibition at 1000 µM: effector at 1 mM
T1 construct: without the predicted plastid transit peptide (amino acid residues; 49-525, 34-507, and 52-527, respectively); made in house; host or cells: E. coli Rosetta-2
Experimental: (§1) To generate recombinant DHS proteins the pET28a vectors carrying the A. thaliana DHS1 (AtDHS1), AtDHS2, or AtDHS3 WT sequence without the predicted plastid transit peptide (amino acid residues; 49-525, 34-507, and 52-527, respectively) were expressed in E. coli Rosetta-2 cells and purified using Ni-affinity chromatography, exactly as was conducted previously (9). To generate DHS proteins with individual sota mutations via site-directed mutagenesis, these pET28a plasmid templates were diluted by 500-fold, mixed with 0.04 U/μL Phusion DNA polymerase (Thermo Scientific), 0.2 mM deoxynucleoside triphosphates (dNTPs), 1× Phusion reaction buffer (Thermo Scientific), and 0.5 μM forward and reverse mutagenesis primers (Table 10). The PCR reaction was run using the following protocol: 98° C. for 30 s followed by 20 cycles of 10 s at 98° C., 20 s at 70° C., 4.5 min at 72° C. with a final extension at 72° C. for 10 min. The PCR products were purified using a QIAquick Gel Extraction Kit (QIAGEN), treated with FastDigest DpnI (Thermo Scientific) to digest methylated plasmid template DNA for 20 min at 37° C., and transformed into E. coli cells. The mutagenized pET28a plasmids were sequenced to confirm that no errors were introduced during the mutagenesis process.
(§2) The DHS enzyme assays were conducted using the colorimetric method that we recently described (9). Briefly, the enzyme solution (7.7 μl) containing 50 mM Hepes (pH 7.4) was preincubated with an effector molecule(s) at room temperature for 15 min. For assays using recombinant protein and enzyme fractions isolated from plant leaves, 0.01 to 0.1 μg and approximately 50 μg of proteins were used, respectively. After adding 0.5 μl of 0.1 M dithiothreitol, the samples were further incubated at room temperature for 15 min. During these incubations, the substrate solution containing 50 mM Hepes (pH 7.4), 2 mM MnCl2, 4 mM E4P, and 4 mM PEP at final concentration was preheated at 37° C. The enzyme reaction was started by adding 6.8 μl of the substrate solution, then incubated at 37° C. for 30 min, and terminated by adding 30 μl of 0.6 M trichloroacetic acid. After a brief centrifugation, 5 μl of 200 mM NaIO4 (sodium meta-periodate) in 9 N H3PO4 was added to oxidize the enzymatic product and to incubate at 25° C. for 20 min. To stop the oxidation reaction, 20 μl of 0.75 M NaAsO2 (sodium arsenite), which was dissolved in 0.5 M Na2SO4 and 0.05 M H2SO4, was added and immediately mixed. After 5 min of incubation at room temperature, one-third of the sample solution was transferred to a new tube to be mixed with 50 μl of 40 mM thiobarbituric acid and incubated at 99° C. for 15 min in a thermal cycler. The mixture was added to 600 μl of cyclohexanone in eight-strip solvent-resistant plastic tubes, mixed vigorously, and centrifuged at 4500 g for 3 min to separate water- and cyclohexanone-based layers for the extraction off the developed pink chromophore. The absorbance of the pink supernatant was read at 549 nm with the microplate reader (Infinite 200 PRO, TECAN) to calculate DAHP production with the molar extinction coefficient at 549 nm (ε=549 nm) of 4.5×10^4 M^−1 cm^−1. Reaction mixtures with boiled enzymes were run in parallel and used as negative controls to estimate the background signal.

[1] = molecular target: T2, Arabidopsis thaliana DHS2 (SEQ ID NO:2) variant DHS2^A4 (sotaA4), G222S (Arabidopsis thaliana, UniProt Q00218, G222S); assay: biochemical; type: biochemical; conditions: up to 1 mM Tyr, Trp (FIG. 2C); shikimate, arogenate, prephenate at 1 mM (FIG. 21A)
T2 construct: without the predicted plastid transit peptide (amino acid residues; 49-525, 34-507, and 52-527, respectively); made in house; host or cells: E. coli
Experimental: as §1, §2

[2] = molecular target: T3, Arabidopsis thaliana DHS2 (AtDHS2), wild type (DHS2^WT), SEQ ID NO:2 (Arabidopsis thaliana, UniProt Q00218); conditions: reference 9; cited from earlier work
T3 construct: without the predicted plastid transit peptide (amino acid residues; 49-525, 34-507, and 52-527, respectively); made in house; host or cells: E. coli Rosetta-2

DHS2^A4 = molecular target: T4, DHS2^A4 (Arabidopsis thaliana, UniProt Q00218, G222S); type: biochemical; conditions: effector up to 1 mM
T4 construct: without the predicted plastid transit peptide (amino acid residues; 49-525, 34-507, and 52-527, respectively); made in house; host or cells: E. coli
Experimental: as §1, §2

[3] = molecular target: T5, Arabidopsis thaliana DHS1 (AtDHS1), wild type (DHS1^WT), SEQ ID NO:1 (Arabidopsis thaliana, UniProt P29976); assay: DHS enzyme assay with effector, Arabidopsis DHS1 WT; type: biochemical; conditions: effector screening (FIG. 2D)
T5 construct: without the predicted plastid transit peptide (amino acid residues; 49-525, 34-507, and 52-527, respectively); made in house; host or cells: E. coli Rosetta-2
Experimental: as §1, with “To” for “To generate recombinant DHS proteins the pET28a vectors carrying the A. thaliana DHS1 (AtDHS1), AtDHS2, or AtDHS3 WT sequence without the predicted plastid transit peptide (amino acid residues; 49-525, 34-507, and 52-527, respectively) were expressed in E. coli Rosetta-2 cells and purified using Ni-affinity chromatography, exactly as was conducted previously (9). To”
The DHS enzyme assays were conducted using the colorimetric method that we recently described (9). Briefly, the enzyme solution (7.7 μl) containing 50 mM Hepes (pH 7.4) was preincubated with an effector molecule(s) at room temperature for 15 min. For assays using recombinant protein and enzyme fractions isolated from plant leaves, 0.01 to 0.1 μg and approximately 50 μg of proteins were used, respectively. After adding 0.5 μl of 0.1 M dithiothreitol, the samples were further incubated at room temperature for 15 min. During these incubations, the substrate solution containing 50 mM Hepes (pH 7.4), 2 mM MnCl2, 4 mM E4P, and 4 mM PEP at final concentration was preheated at 37° C. The enzyme reaction was started by adding 6.8 μl of the substrate solution, then incubated at 37° C. for 30 min, and terminated by adding 30 μl of 0.6 M trichloroacetic acid. After a brief centrifugation, 5 μl of 200 mM NaIO4 (sodium meta-periodate) in 9 N H3PO4 was added to oxidize the enzymatic product and to incubate at 25° C. for 20 min. To stop the oxidation reaction, 20 μl of 0.75 M NaAsO2 (sodium arsenite), which was dissolved in 0.5 M Na2SO4 and 0.05 M H2SO4, was added and immediately mixed. […]

DHS1^WT = molecular target: T6, DHS1^WT (Arabidopsis thaliana, UniProt P29976); assay: DHS enzyme assay (colorimetric), recombinant DHS1^WT; type: biochemical; conditions: FIG. 2D
T6 construct: without the predicted plastid transit peptide (amino acid residues; 49-525, 34-507, and 52-527, respectively); made in house; host or cells: E. coli Rosetta-2
Experimental: as §1, §2

T3 sequence (Q00218 34-507): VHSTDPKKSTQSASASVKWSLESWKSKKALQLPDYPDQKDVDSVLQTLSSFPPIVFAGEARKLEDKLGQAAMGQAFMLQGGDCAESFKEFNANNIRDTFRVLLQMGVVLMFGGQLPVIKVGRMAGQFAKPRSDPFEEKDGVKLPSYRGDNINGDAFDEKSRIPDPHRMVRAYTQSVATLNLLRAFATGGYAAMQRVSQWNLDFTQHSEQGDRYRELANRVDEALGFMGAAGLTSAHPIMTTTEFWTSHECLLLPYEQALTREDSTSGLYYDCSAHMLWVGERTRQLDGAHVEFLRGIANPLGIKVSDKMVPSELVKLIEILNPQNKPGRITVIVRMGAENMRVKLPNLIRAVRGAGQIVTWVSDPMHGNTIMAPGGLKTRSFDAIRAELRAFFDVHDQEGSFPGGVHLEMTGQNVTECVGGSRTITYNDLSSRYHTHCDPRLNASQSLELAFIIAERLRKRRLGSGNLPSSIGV
T1 sequence (Q00218 34-507): as above
T2 sequence (Q00218 34-507 G222S): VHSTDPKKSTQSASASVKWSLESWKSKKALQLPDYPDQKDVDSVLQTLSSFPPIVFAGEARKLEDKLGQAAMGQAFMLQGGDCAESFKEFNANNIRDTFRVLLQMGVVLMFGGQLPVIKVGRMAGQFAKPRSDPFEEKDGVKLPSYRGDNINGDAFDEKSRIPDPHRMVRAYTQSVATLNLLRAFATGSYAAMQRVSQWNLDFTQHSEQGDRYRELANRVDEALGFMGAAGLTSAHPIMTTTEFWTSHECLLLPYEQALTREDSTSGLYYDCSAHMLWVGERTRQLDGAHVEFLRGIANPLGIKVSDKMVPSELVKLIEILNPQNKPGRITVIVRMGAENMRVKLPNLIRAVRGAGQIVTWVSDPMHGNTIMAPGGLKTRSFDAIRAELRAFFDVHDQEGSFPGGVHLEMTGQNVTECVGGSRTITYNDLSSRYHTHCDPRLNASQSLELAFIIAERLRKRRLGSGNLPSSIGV
T4 sequence (Q00218 34-507 G222S): as above
T5 sequence (P29976 49-525): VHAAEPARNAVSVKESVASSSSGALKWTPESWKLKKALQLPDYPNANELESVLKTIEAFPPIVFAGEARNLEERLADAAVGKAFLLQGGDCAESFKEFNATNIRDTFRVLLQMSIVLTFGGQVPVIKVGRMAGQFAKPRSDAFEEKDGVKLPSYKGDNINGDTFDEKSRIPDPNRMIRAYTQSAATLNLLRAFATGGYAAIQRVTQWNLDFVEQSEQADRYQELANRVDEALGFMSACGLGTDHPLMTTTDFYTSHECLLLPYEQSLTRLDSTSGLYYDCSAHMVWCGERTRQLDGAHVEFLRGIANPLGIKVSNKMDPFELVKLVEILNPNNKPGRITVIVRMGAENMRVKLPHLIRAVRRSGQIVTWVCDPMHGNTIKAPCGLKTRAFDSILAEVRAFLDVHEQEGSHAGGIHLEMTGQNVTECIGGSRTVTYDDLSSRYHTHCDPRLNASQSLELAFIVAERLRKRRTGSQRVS
T6 sequence (P29976 49-525): as above

Row | Structure (SMILES) | inhibition of DHS2^A4 [1] | inhibition of DHS2 [2] | inhibition of DHS2^A4 activity (DHS2^A4) | also measured
1 | OCCc1ccc(O)cc1 [Tyrosol] | – | – | – | inhibition at 1000 µM (DHS2^WT): ~30%
2 | N[C@@H](CC1(C(=O)O)C=CC(O)C=C1)C(=O)O (stereo partly drawn) [arogenate] | still inhibited | slightly inhibit DHS2 | still inhibited | –
3 | c1ccc2[nH]ccc2c1 [indole] | – | – | – | inhibition of DHS1^WT activity [3]: did not affect the activity of DHS1
4 | O=C(O)C(=O)CC1(C(=O)O)C=CC(O)C=C1 (stereo not drawn) [prephenate] | still inhibited | slightly inhibit DHS2 | still inhibited | –
5 | O=C(O)C1=C[C@@H](O)[C@@H](O)[C@H](O)C1 [shikimate] | still inhibited | slightly inhibit DHS2 | still inhibited | –
6 | NCCc1c[nH]c2ccccc12 [tryptamine] | – | – | – | effect on DHS1 activity (effector screening) (DHS1^WT): did not affect the activity; effect on DHS2 activity (effector screening) (DHS2^WT; FIG. 2D): slight reduction; inhibition of DHS1^WT activity [3]: did not affect the activity of DHS1
7 | NCCc1ccc(O)cc1 [tyramine] | – | – | – | inhibition at 1000 µM (DHS2^WT): ~30%
